Assays:
Assay in all cases: Activity test of the compositions, post-emergence treatment by foliage spray
Assay type in all cases: in vivo
Galium aparine = conditions: foliage (F)
Procedure: (§1) The desired active ingredient B was purchased from a reagent company or synthesized by a known method. The technical materials were all dissolved in acetone and diluted with an aqueous solution containing 0.10% emulsifier Tween-80 which were to be used immediately after dilution.
(§2) Weeds were cultivated by a pot culture method. […] Weed seeds with plump and uniform grains were selected, soaked in lukewarm water at 25° C. for 6 hours, and germinated in a 28° C. biochemical incubator (in darkness). The weed seeds that had just germinated were evenly placed on the surface of the soil and then covered with 0.5-1 cm soil according to the sizes of seeds.
(§3) Each treatment was repeated 4 times. Four pots with 20 weed seeds per pot were treated each time.
(§4) The agents were used for only once in total in the experiment. In the stage of 1.5-2 leaves, the weeds were thinned out to maintain 10 weeds per pot. Ten weeds were kept in each treatment, then continued to be cultured until Echinochloa crus-galli var. zelayensis reached the stage of 2-3 leaves, Cirsium setosum reached the stage of 5-6 leaves, Galium aparine reached the stage of 3-4 whorl leaves, Amaranthus retroflexus reached the stage of 3-5 leaves, Echinochloa crusgalli, Lolium multiflorum and Digitaria sanguinalis reached the stage of 3 leaves with one leaf not fully expanding for further treatment.
(§5) The well-cultured test materials were evenly placed on a platform with an area of 0.5 m^2, and solution of agents was sprayed on the stems and leaves thereof by the 3WP-2000-type walking spray tower at a dosage of 450 kg/ha and at a spray pressure of 0.3 MPa. After all the solution was sprayed, the valve was closed. After 30 seconds, the door of the spray tower was opened, and the nutritional bowl was taken out. Then the valve was opened, and the spray tube was cleaned by spraying 50 ml of water. After the treatment, the weeds were routinely cultured in a greenhouse.
(§6) A method for investigating absolute numbers was employed. Whole seedlings of survival weeds were cut off with a blade along the soil surface, and the fresh weight of the weeds was weighed with an analytical balance. For dead weeds, the fresh weight thereof was zero.
(§7) The investigation was performed 21 days after the treatment for only once in total.

Digitaria sanguinalis = tested on: Digitaria sanguinalis
Procedure: as §1, §2
(§8) The culture was carried out in a controllable sunlight greenhouse at 20 to 30° C., in natural light, and with relative humidity of 57% to 72%.
as §3, §4, §5, §6, §7

[1] = tested on: Echinochloa crus-galli var. zelayensis; conditions: Echinochloa crusgalli var. zelayensis, foliage (F)
Procedure: as §1, §2, §8, §3, §4, §5, §6, §7

Lolium multiflorum = conditions: foliage (F)
Procedure: as §1, §2, §8, §3, §4, §5, §6, §7

Amaranthus retroflexus = conditions: foliage (F)
Procedure: as §1, §2, §8, §3, §4, §5, §6, §7

Echinochloa crusgalli = conditions: foliage (F)
Procedure: as §1, §2, §8, §3, §4, §5, §6, §7

COc1c(Cl)ccc(-c2cc(N)c(Cl)c(C(=O)O)n2)c1F [halauxifen]
Control effect (%) of B applied alone (B) (Galium aparine; B 0.2 g a.i./mu): 26.4%
Control effect (%) of B applied alone (B) (Galium aparine; B 0.4 g a.i./mu): 37.2%

CCCN(CCC)C(=O)SCc1ccccc1 [prosulfocarb]
Control effect (%) of B applied alone (B) (Galium aparine; B 50 g a.i./mu): 40.5%
Control effect (%) of B applied alone (B) (Galium aparine; B 100 g a.i./mu): 56.1%

COc1cc(OC)nc(NC(=O)NS(=O)(=O)c2ncccc2C(=O)N(C)C)n1 [nicosulfuron]
Control effect (%) of B applied alone (B) (Digitaria sanguinalis; foliage (F), B 1 g a.i./mu): 29.7%
Control effect (%) of B applied alone (B) (Digitaria sanguinalis; foliage (F), B 2 g a.i./mu): 47.6%

O=C(O)c1c(Cl)ccc2cc(Cl)cnc12 [quinclorac]
Control effect (%) of B applied alone (B) ([1]; B 4 g a.i./mu): 22.5%
Control effect (%) of B applied alone (B) ([1]; B 8 g a.i./mu): 41.4%

COc1c(Cl)ccc(Cl)c1C(=O)O [dicamba]
Control effect (%) of B applied alone (B) (Galium aparine; B 4 g a.i./mu): 28.6%
Control effect (%) of B applied alone (B) (Galium aparine; B 8 g a.i./mu): 39.7%

Cn1[nH]c(C2CC2)c(C(=O)c2ccc(C(F)(F)F)c(N3CCCCC3=O)c2Cl)c1=O [cypyrafluone]
Control effect (%) of B applied alone (B) (Lolium multiflorum; B 3 g a.i./mu): 26.7%
Control effect (%) of B applied alone (B) (Lolium multiflorum; B 6 g a.i./mu): 38.9%

Cc1nn(C)cc1C(=O)Oc1c(C(=O)c2ccc(C(F)(F)F)cc2S(C)(=O)=O)c(C)nn1C [bipyrazone]
Control effect (%) of B applied alone (B) (Galium aparine; B 0.75 g a.i./mu): 33.6%
Control effect (%) of B applied alone (B) (Galium aparine; B 1.5 g a.i./mu): 46.2%

CS(=O)(=O)NC(=O)c1cc(Oc2ccc(C(F)(F)F)cc2Cl)ccc1[N+](=O)[O-] [fomesafen]
Control effect (%) of B applied alone (B) (Amaranthus retroflexus; B 4 g a.i./mu): 38.1%
Control effect (%) of B applied alone (B) (Amaranthus retroflexus; B 8 g a.i./mu): 47.5%

COc1cnc(OC)n2nc(NS(=O)(=O)c3c(OCC(F)F)cccc3C(F)(F)F)nc12 [penoxsulam]
Control effect (%) of B applied alone (B) (Echinochloa crusgalli; B 0.5 g a.i./mu): 52.7%
Control effect (%) of B applied alone (B) (Echinochloa crusgalli; B 1 g a.i./mu): 61.7%

Cc1ccc2c(c1)[C@H](Nc1nc(N)nc(C(C)F)n1)[C@@H](C)C2 (some centres unmarked) [indaziflam]
Control effect (%) of B applied alone (B) (Digitaria sanguinalis; foliage treatment (F), B at 0.8 g a.i./mu, 21 days): 36.4%
Control effect (%) of B applied alone (B) (Digitaria sanguinalis; foliage treatment (F), B at 1.6 g a.i./mu, 21 days): 52.1%

Cc1cc(Cl)ccc1OCC(=O)O [MCPA]
Control effect (%) of B applied alone (B) (Galium aparine; B 20 g a.i./mu): 33.1%
Control effect (%) of B applied alone (B) (Galium aparine; B 40 g a.i./mu): 46.7%

CCCCCCCC(=O)Oc1c(Br)cc(C#N)cc1Br [bromoxynil octanoate]
Control effect (%) of B applied alone (B) (Amaranthus retroflexus; B 6 g a.i./mu): 38.2%
Control effect (%) of B applied alone (B) (Amaranthus retroflexus; B 12 g a.i./mu): 49.5%

COC(=O)CCNC(=O)C(C)Sc1cc(-n2c(=O)cc(C(F)(F)F)n(C)c2=O)c(F)cc1Cl (centres unmarked) [tiafenacil]
Control effect (%) of B applied alone (B) (Echinochloa crusgalli; B 0.5 g a.i./mu): 33.4%
Control effect (%) of B applied alone (B) (Echinochloa crusgalli; B 1 g a.i./mu): 45.9%

C[C@@H](Oc1nc(F)c(Cl)c(N)c1Cl)C(=O)OCC1CCCO1 (some centres unmarked)
Control effect (%) of B applied alone (B) (Lolium multiflorum; B 8 g a.i./mu): 30.7%
Control effect (%) of B applied alone (B) (Lolium multiflorum; B 16 g a.i./mu): 44.1%

CS(=O)(=O)c1ccc(C(=O)C2C(=O)CCCC2=O)c([N+](=O)[O-])c1 [mesotrione]
Control effect (%) of B applied alone (B) (Digitaria sanguinalis; foliage (F), B 2.5 g a.i./mu): 38.6%
Control effect (%) of B applied alone (B) (Digitaria sanguinalis; foliage (F), B 5 g a.i./mu): 52.1%

Nc1c(Cl)c(F)nc(OCC(=O)O)c1Cl [fluroxypyr]
Control effect (%) of B applied alone (B) (Galium aparine; B 4 g a.i./mu): 29.4%
Control effect (%) of B applied alone (B) (Galium aparine; B 8 g a.i./mu): 46.1%

COC(=O)c1ccc(CNS(C)(=O)=O)cc1S(=O)(=O)NC(=O)Nc1nc(OC)cc(OC)n1 [mesosulfuron-methyl]
Control effect (%) of B applied alone (B) (Lolium multiflorum; B 0.25 g a.i./mu): 31.5%
Control effect (%) of B applied alone (B) (Lolium multiflorum; B 0.5 g a.i./mu): 44.3%

CCC[S@@+]([O-])c1c(C(F)(F)F)ccc(C(=O)Nc2nnc(C)o2)c1F
Control effect (%) of B applied alone (B) (Echinochloa crusgalli; B 1.5 g a.i./mu): 33.8%
Control effect (%) of B applied alone (B) (Echinochloa crusgalli; B 3 g a.i./mu): 49.7%

COc1ncc(F)c2nc(S(=O)(=O)Nc3c(F)cccc3F)nn12 [florasulam]
Control effect (%) of B applied alone (B) (Galium aparine; B 0.1 g a.i./mu): 31.5%
Control effect (%) of B applied alone (B) (Galium aparine; B 0.2 g a.i./mu): 44.1%

CC(C)c1nn(C(=O)NC(C)(C)C)c(=O)n1N [amicarbazone]
Control effect (%) of B applied alone (B) (Echinochloa crusgalli; B 4 g a.i./mu): 29.8%
Control effect (%) of B applied alone (B) (Echinochloa crusgalli; B 8 g a.i./mu): 37.2%

CCC(=O)Nc1ccc(Cl)c(Cl)c1 [propanil]
Control effect (%) of B applied alone (B) ([1]; B 16 g a.i./mu): 16.8%
Control effect (%) of B applied alone (B) ([1]; B 32 g a.i./mu): 31.2%

Cc1cc(C)n(Cc2c(S(C)(=O)=O)ccc(C(=O)c3c(C)nn(C)c3OC(=O)c3cn(C)nc3C)c2Cl)n1 [tripyrasulfone]
Control effect (%) of B applied alone (B) (Echinochloa crusgalli; B 4 g a.i./mu): 26.7%
Control effect (%) of B applied alone (B) (Echinochloa crusgalli; B 8 g a.i./mu): 46.1%

— US20240327359A1, “3-ISOXAZOLIDINONE COMPOUND, PREPARATION METHOD, HERBICIDAL COMPOSITION AND APPLICATION THEREOF” (QINGDAO KINGAGROOT CHEMICAL COMPOUND CO., LTD., priority 2021, published 2024)
